Source: US10513519B2, “Solid forms of (1S,4S)-4-(2-(((3S,4R)-3-fluorotetrahydro-2H-pyran-4-yl)amino)-8-((2,4,6-trichlorophenyl)amino)-9H-purin-9-yl)-1-methylcyclohexane-1-carboxamide and methods of their use” (Signal Pharmaceuticals, LLC, priority 2016, dated 2019)

Tested on: cancer cell lines
Test: Multiplexed cytotoxicity assay: cell proliferation (relative cell count IC50, GI50)
Type: cell-based
Details: Homo sapiens
Protocol: (§1) Cells are grown in RPMI1640, 10% FBS, 2 mM L-alanyl-L-Glutamine, 1 mM Na pyruvate or a special medium in a humidified atmosphere of 5% CO2 at 37° C. Cells are seeded into 384-well plates and incubated in a humidified atmosphere of 5% CO2 at 37° C. Compounds are added 24 h post cell seeding. At the same time, a time zero untreated cell plate is generated. After a 72 hour incubation period, cells are fixed and stained with fluorescently labeled antibodies and nuclear dye to allow visualization of nuclei, apoptotic cells and mitotic cells. Apoptotic cells are detected using an anti-active caspase-3 antibody. Mitotic cells are detected using an anti phospho-histone-3 antibody. Compounds are serially diluted 3.16-fold and assayed over 10 concentrations in a final assay concentration of 0.1% DMSO from the highest test concentration of 10 μM. Automated fluorescence microscopy was carried out using a Molecular Devices ImageXpress Micro XL high-content imager, and images are collected with a 4× objective.
(§2) Sixteen-bit TIFF images are acquired and analyzed with MetaXpress 5.1.0.41 software. Cell proliferation is measured by the signal intensity of the incorporated nuclear dye. The cell proliferation assay output is referred to as the relative cell count. To determine the cell proliferation end point, the cell proliferation data output is transformed to percentage of control (POC) using the following formula: POC=relative cell count(compound wells)/relative cell count(vehicle wells)×100
(§3) GI50 is the concentration needed to reduce the observed growth by half. This is the concentration that inhibits the growth to the level midway between growth in untreated cells and the number of cells seeded in the well (Time zero value). The IC50 values are calculated using nonlinear regression to fit data to a sigmoidal 4 point, 4 parameter One-Site dose response model, where: y(fit)=A+[(B−A)/(1+((C/x)^D))].
as §1, with “In another experiment, cells were grown” for “Cells are grown”, “Cells were” for “Cells are”, “Compounds were” for “Compounds are”, “plate was” for “plate is”, “cells were” for “cells are”, “images were” for “images are”
as §2, with “images were” for “images are”, “proliferation was” for “proliferation is”, “output was” for “output is”
as §3, with “GI50 refers to” for “GI50 is”, “This corresponds to” for “This is”, “values were” for “values are”

[1] = BV-173, BV173 (Hematopoietic and lymphoid, Leukemia)
[2] = BXPC-3, 72 h, BXPC3, Pancreas, 72 h
[3] = BeWo, 72 h, Female GU, Placenta
[4] = C-4-II, C4II (Female GU, Cervix)
[5] = C-33-A, C33A (Female GU, Cervix)
[6] = CA46, CA46 (Hematopoietic and lymphoid, Lymphoma)
[7] = CAL-62, 72 h, CAL62, Endocrine, Thyroid, 72 h
[8] = CAPAN-1, 72 h, CAPAN1, Pancreas, 72 h
[9] = CCF-STTG1, CCFSTTG1 (CNS, Glioma)
[10] = CCRF-CEM, CCRFCEM (Hematopoietic and lymphoid, Leukemia)
[11] = CFPAC-1, 72 h, CFPAC1, Pancreas, 72 h
[12] = CGTH-W-1, 72 h, CGTHW1, Endocrine, Thyroid, 72 h
[13] = CHP-212, 72 h, CHP212, CNS, Neuroblastoma, 72 h
[14] = COLO-320-HSR, COLO320HSR (Colon)
[15] = COLO-829, COLO829 (Skin, Melanoma)
[16] = COR-L23, 72 h, CORL23, Lung, NSCLC, 72 h
[17] = COR-L105, 72 h, CORL105, Lung, NSCLC, 72 h
[18] = CRO-AP2, CROAP2 (Hematopoietic and lymphoid, Lymphoma)
[19] = Ca-Ski, 72 h, CASKI, Female GU, Ovary
[20] = Calu-1, 72 h, CALU1, Lung, NSCLC, 72 h
[21] = Calu-6, 72 h, CALU6, Lung, NSCLC, 72 h
[22] = Caov-3, 72 h, CAOV3, Female GU, Ovary, 72 h
[23] = Capan-2, 72 h, CAPAN2, Pancreas, 72 h
[24] = ChaGo-K-1, 72 h, CHAGOK1, Lung, NSCLC, 72 h
[25] = D283 Med, D283MED (CNS, Medulloblastoma)
[26] = DBTRG-05MG, DBTRG05MG (CNS, Glioma)
[27] = DMS-53, 72 h, DMS53, Lung, SCLC, 72 h
[28] = DMS-114, 72 h, DMS114, Lung, SCLC, 72 h
[29] = DMS-273, 72 h, DMS273, Lung, SCLC, 72 h
[30] = DOHH-2, DOHH2 (Hematopoietic and lymphoid, Lymphoma)
[31] = DU-145, 72 h, DU145, Prostate, 72 h
[32] = Daoy, DAOY (CNS, Medulloblastoma)
[33] = Daudi, DAUDI (Hematopoietic and lymphoid, Lymphoma)
[34] = Detroit 562, DETROIT562 (Head and Neck)
[35] = DoTc2-4510, DOTC24510 (Female GU, Cervix)
[36] = GA-10, GA10 (Hematopoietic and lymphoid, Lymphoma)
[37] = HEC-1-A, 72 h, HEC1A, Female GU, Uterus
[38] = HEL 92.1.7, HEL9217 (Hematopoietic and lymphoid, Leukemia)
[39] = HPAF-II, 72 h, HPAFII, Pancreas
[40] = HT-1080, 72 h, HT1080, Soft Tissue, Sarcoma, 72 h
[41] = Hs 294T, HS294T (Skin, Melanoma)
[42] = Hs 695T, HS695T (Skin, Melanoma)
[43] = HuP-T4, 72 h, HUPT4, Pancreas, 72 h
[44] = J-RT3-T3-5, JRT3T35 (Hematopoietic and lymphoid, Leukemia)
[45] = JEG-3, 72 h, JEG3, Female GU, Placenta, 72 h

## C[C@]1(C(N)=O)CC[C@@H](n2c(Nc3c(Cl)cc(Cl)cc3Cl)nc3cnc(N[C@@H]4CCOC[C@H]4F)nc32)CC1 [Compound 1, cis-4-[2-{[(3S,4R)-3-fluorooxan-4-yl]amino}-8-(2,4,6-trichloroanilino)-9H-purin-9-yl]-1-methylcyclohexane-1-carboxamide]
BT-474, BT474 (Breast)
  GI50: > 10 µM
  IC50: > 10 µM
BT-549, BT549 (Breast)
  GI50: > 10 µM
  IC50: > 10 µM
[1]
  GI50: 1.1 µM
  IC50: > 10 µM
[2]
  GI50: 0.0369 µM
  IC50: 0.0455 µM
[3]
  GI50: 5.16 µM
  IC50: 5.69 µM
[4]
  GI50: > 10 µM
  IC50: > 10 µM
[5]
  GI50: 0.191 µM
  IC50: 0.407 µM
[6]
  GI50: 0.0146 µM
  IC50: 0.0213 µM
CAKI-1, CAKI1 (Kidney)
  GI50: 0.0914 µM
  IC50: 0.151 µM
CAKI-2, CAKI2 (Kidney)
  GI50: 0.139 µM
  IC50: 0.193 µM
CAL-27, CAL27 (Head and Neck)
  GI50: 0.0592 µM
  IC50: 0.0661 µM
[7]
  GI50: 0.0836 µM
  IC50: 0.0936 µM
CAMA-1, CAMA1 (Breast)
  GI50: 0.298 µM
  IC50: 2.24 µM
[8]
  GI50: 0.105 µM
  IC50: > 10 µM
[9]
  GI50: > 10 µM
  IC50: > 10 µM
[10]
  GI50: 5.03 µM
  IC50: 6.05 µM
[11]
  GI50: > 10 µM
  IC50: > 10 µM
[12]
  GI50: 0.0547 µM
  IC50: 0.0605 µM
CHL-1, CHL1 (Skin, Melanoma)
  GI50: 0.103 µM
  IC50: 0.117 µM
[13]
  GI50: 0.0066 µM
  IC50: 0.0165 µM
COLO 201, COLO201 (Colon)
  GI50: 0.0128 µM
  IC50: 0.0172 µM
COLO 205, COLO205 (Colon)
  GI50: 0.0095 µM
  IC50: 0.0117 µM
COLO 320DM, COLO320DM (Colon)
  GI50: 9.11 µM
  IC50: > 10 µM
[14]
  GI50: 4.19 µM
  IC50: 4.44 µM
[15]
  GI50: 0.0121 µM
  IC50: 0.0343 µM
[16]
  GI50: 0.0238 µM
  IC50: 0.0283 µM
[17]
  GI50: 0.0165 µM
  IC50: 0.0414 µM
[18]
  GI50: 0.996 µM
  IC50: 2.58 µM
[19]
  GI50: 6.76 µM
  IC50: > 10 µM
[20]
  GI50: 0.0967 µM
  IC50: 0.149 µM
[21]
  GI50: 0.0463 µM
  IC50: 0.083 µM
[22]
  GI50: 0.429 µM
  IC50: > 10 µM
[23]
  GI50: 0.136 µM
  IC50: 0.291 µM
[24]
  GI50: > 10 µM
  IC50: > 10 µM
[25]
  GI50: 2.56 µM
  IC50: 7.55 µM
[26]
  GI50: 0.0432 µM
  IC50: 0.0984 µM
DLD-1, DLD1 (Colon)
  GI50: 0.162 µM
  IC50: 0.197 µM
[27]
  GI50: 0.998 µM
  IC50: > 10 µM
[28]
  GI50: 0.0688 µM
  IC50: 0.6 µM
[29]
  GI50: 5.96 µM
  IC50: 6.79 µM
[30]
  GI50: 5.54 µM
  IC50: 5.79 µM
[31]
  GI50: 0.0738 µM
  IC50: 0.0965 µM
[32]
  GI50: 0.749 µM
  IC50: 1.09 µM
[33]
  GI50: 0.0177 µM
  IC50: > 10 µM
[34]
  GI50: 0.347 µM
  IC50: > 10 µM
[35]
  GI50: 0.04 µM
  IC50: 0.132 µM
EFM-19, EFM19 (Breast)
  GI50: 4.2 µM
  IC50: > 10 µM
FaDu, FADU (Head and Neck)
  GI50: 0.435 µM
  IC50: 0.787 µM
G-361, G361 (Skin, Melanoma)
  GI50: 0.102 µM
  IC50: 0.15 µM
G-401, G401 (Kidney)
  GI50: 0.0774 µM
  IC50: 0.086 µM
G-402, G402 (Kidney)
  GI50: 0.0504 µM
  IC50: 0.0925 µM
[36]
  GI50: 0.0468 µM
  IC50: 0.0567 µM
HCT-15, HCT15 (Colon)
  GI50: 1.97 µM
  IC50: 2.23 µM
HCT-116, HCT116 (Colon)
  GI50: 0.0194 µM
  IC50: 0.0204 µM
[37]
  GI50: 1.8 µM
  IC50: 2.81 µM
[38]
  GI50: 4.62 µM
  IC50: 8.23 µM
HMCB, HMCB (Skin, Melanoma)
  GI50: 0.0724 µM
  IC50: 0.113 µM
[39]
  GI50: 0.013 µM
  IC50: 0.0175 µM
HRT-18, HRT18 (Colon)
  GI50: 0.0775 µM
  IC50: 0.0819 µM
HT1197, HT1197 (Bladder)
  GI50: 0.444 µM
  IC50: > 10 µM
HT-29, HT29 (Colon)
  GI50: 0.0129 µM
  IC50: 0.0167 µM
[40]
  GI50: 0.0648 µM
  IC50: 0.0727 µM
HT-1376, HT1376 (Bladder)
  GI50: 0.792 µM
  IC50: 3.48 µM
HeLa, HELA (Female GU, Cervix)
  GI50: 6.75 µM
  IC50: 8.71 µM
HepG2, HEPG2 (Liver)
  GI50: 0.0224 µM
  IC50: 0.0643 µM
[41]
  GI50: 0.0507 µM
  IC50: 0.0706 µM
Hs 683, HS683 (CNS, Glioma)
  GI50: 0.148 µM
  IC50: 0.305 µM
[42]
  GI50: 0.0363 µM
  IC50: 0.16 µM
Hs746T, 72 h, Stomach
  GI50: 0.0396 µM
  IC50: 0.122 µM
Hs-578T, HS578T (Breast)
  GI50: 0.153 µM
  IC50: 0.837 µM
HuCCT-1, HUCCT1 (Liver)
  GI50: 0.0537 µM
  IC50: 0.0633 µM
[43]
  GI50: 0.0434 µM
  IC50: 0.0505 µM
HuTu80, HUTU80 (Duodenum)
  GI50: 0.057 µM
  IC50: 0.0695 µM
[44]
  GI50: 3.58 µM
  IC50: 4.78 µM
[45]
  GI50: 6.34 µM
  IC50: 7.75 µM
